From patent US20080139534A1, “Bisbenzamidines and bisbenzamidoximes for the treatment of human African trypanosomiasis” (XAVIER UNIVERSITY OF LOUISIANA, priority 2006, published 2008)
Read-outs that look alike come from different tables or passages of the source. Marks after values point to notes of the source that are not given here.

How the values were obtained:
[1] = test system: T. b. brucei Lab 110 EATRO; test: In vitro trypanocidal activity, bloodforms in HMI-18 medium, Coulter counts; format: cell-based, Trypanosoma brucei brucei; settings: read-out: Lab 100 EATRO IC50
poly(dA-dT) = test: Thermal denaturation study, DNA binding affinity (ΔTm); settings: 1:5 compound to base pair ratio;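 note: shift in the midpoint temperature of the thermal melting curve of poly(dA-dT), each value the mean of two or more independent determinations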
Protocol: (§1) The binding affinity was measured by determining the change in the midpoint (Tm) of the thermal denaturation curves of calf thymus DNA as well as poly(dA-dT) at a 1:5 compound to base pair ratio.

calf thymus DNA = test: as above; settings: 1:5 compound to base pair ratio;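 note: shift in midpoint melting temperature of calf thymus DNA thermal denaturation curves caused by compound binding, values averaged over at least two determinations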
Protocol: as §1

[2] = test system: T. b. rhodesiense KETRI 243; test: In vitro trypanocidal activity, bloodforms in HMI-18 medium, Coulter counts; format: cell-based, Trypanosoma brucei rhodesiense; settings: 48 h exposure
[3] = test system: T. b. brucei Lab 110 EATRO; test: In vivo efficacy in infected mice; design: species or system Trypanosoma brucei brucei
[4] = test system: T. b. rhodesiense KETRI 1992; test: In vivo efficacy in infected mice, clinical isolate; design: species or system Trypanosoma brucei rhodesiense
Protocol: (§2) Female Swiss-Webster mice (weight, 20 g) were infected (intraperitoneally) with 2.5×10^5 trypanosomes from rat blood, and the infection was allowed to develop for 24 h before drug treatment was begun. Groups of three mice each were injected (intraperitoneally) with each drug concentration. All of the experiments included a group of untreated controls. […] Animals were monitored weekly for parasites in tail vein blood smears. Mice were considered cured if they survived more than 30 days after the death of the last control with no parasites in tail vein blood smears. MSD (mean survival in days) was also recorded for each group. It is the average time of survival of the animals in the group, exclusive of cured animals.
(§3) Mice were infected on day 1 with 2.5×10^5 trypanosomes and the infections allowed to progress 24 h. prior to dosing. Animals were dosed 1×/day i.p for 3 days. Cured animals survived >30 days beyond the death of untreated, infected controls. MSD=mean survival in days exclusive of cured animals. Dose as mg/kg/day.

[5] = test system: T. b. rhodesiense KETRI 2002; test: as above; design: species or system Trypanosoma brucei rhodesiense
Protocol: as §2, §3

[6] = mice, 1 mg/kg/day i.p. for 3 days
[7] = mice, 5 mg/kg/day i.p. for 3 days
[8] = mice, 10 mg/kg/day i.p. for 3 days
[9] = KETRI 1992, 1 mg/kg/day i.p. for 3 days
[10] = KETRI 1992, 5 mg/kg/day i.p. for 3 days
[11] = KETRI 1992, 10 mg/kg/day i.p. for 3 days
[12] = mice, 1, 2.5, 5, 10, 15, 25 mg/kg/day i.p. for 3 days (all doses failed to cure)
[13] = mice, 1, 2.5, 5, 10, 15, 25 mg/kg/day i.p. for 3 days (all doses)

| SMILES | IC50 ([1]; 48 h exposure, bloodforms) | DNA Binding Δ Tm Poly (dA-dT) (poly(dA-dT)) | DNA Binding Δ Tm Calf thymus (calf thymus DNA) | IC50 [2] | also measured |
| --- | --- | --- | --- | --- | --- |
| Cl.Cl.c1cc(N2CCN(c3ccc(C4=NCCN4)cc3)CC2)ccc1C1=NCCN1 [compound 0126] | 16 nM | 19.4 °C | 15.0 °C | 6.5 nM | – |
| O=C(Nc1ccc(C2=NCCN2)cc1)C1CC1C(=O)Nc1ccc(C2=NCCN2)cc1 (stereo not shown) [8IM] | > 1000 nM | 9.6 °C | 6.0 °C | 440 nM | – |
| CCC(C)CNC(=N)c1ccc(N2CCN(c3ccc(C(=N)NCC(C)CC)cc3)CC2)cc1.Cl.Cl (stereo not shown) [compound 0138] | 13 nM | 16.0 °C | 12.9 °C | 39 nM | – |
| Cl.Cl.N=C(NC1CCCCCC1)c1ccc(N2CCN(c3ccc(C(=N)NC4CCCCCC4)cc3)CC2)cc1 [compound 0129] | 18 nM | 18.7 °C | 15.6 °C | 22 nM | # Cured/#Treated (%) [3, 6]: 0/3; MSD [3, 6]: 7.5 days; MSD [3, 7]: 9 days; MSD ([3]; mice, 7.5 mg/kg/day i.p. for 3 days): >30 days; MSD [3, 8]: >30 days; MSD ([3]; mice, 15 mg/kg/day i.p. for 3 days): >30 days |
| CCCCNC(=N)c1ccc(N2CCCN(c3ccc(C(=N)NCCCC)cc3)CC2)cc1.Cl.Cl [74N] | 180 nM | 13.3 °C | 11.8 °C | 79 nM | – |
| C=CCCc1nc(-c2ccc(NC(=O)CCCC(=O)Nc3ccc(-c4noc(CCC=C)n4)cc3)cc2)no1 [TH745, N,N′-Bis[4-(5-3,4-Butene-1,2,4-oxadiazol-3yl)phenyl]pentanediamide] | – | – | – | – | melting point: 168 to 170 °C |
| NNC(=O)c1ccc(N2CCN(c3ccc(C(=O)NN)cc3)CC2)cc1 [compound 0117, 4,4′-(1,4-Piperazinediyl)bisbenzenecarboxhydrazide] | – | 0.0 °C | 0.1 °C | – | IC50 ([1]; Trypanosoma brucei, 48 h): 240 nM; melting point: > 300 °C |
| C(=NNc1ccccc1)c1ccc(N2CCN(c3ccc(C=NNc4ccccc4)cc3)CC2)cc1 [compound 0116] | 1740 nM | 0.0 °C | −0.2 °C | 1870 nM | – |
| CCNC(=N)c1ccc(N2CCN(c3ccc(C(=N)NCC)cc3)CC2)cc1.Cl.Cl [compound 0140] | 13 nM | 18.6 °C | 15.3 °C | 33 nM | # Cured/#Treated (%) [3, 6]: 0/3; MSD [3, 6]: 5 days; MSD [3, 7]: 18 days; MSD [3, 8]: 17 days |
| CCCNC(=N)c1ccc(N2CCN(c3ccc(C(=N)NCCC)cc3)CC2)cc1.Cl.Cl [63N, N,N′-Dipropyl 4,4′-(1,4-piperazinediyl)bisbenzenecarboxidamide] | – | 26.0 °C | 17.0 °C | – | IC50 ([1]; Trypanosoma brucei, 48 h exposure, bloodforms): 35 nM; IC50 ([2]; Trypanosoma brucei, RHODESIENSE): 32.5 nM |
| N=C(N)c1ccc(NC(=O)CCCCCCC(=O)Nc2ccc(C(=N)N)cc2)cc1 [compound 0705] | 2.8 nM | – | – | 1.45 nM | MSD [3, 6]: 10 days; MSD [3, 7]: >30 days; MSD [3, 8]: >30 days; MSD ([3]; mice, 25 mg/kg/day i.p. for 3 days): >30 days; #Cured/Total [4, 9]: 0/3; MSD [4, 9]: 15.3 days; #Cured/Total [4, 10]: 0/3; MSD [4, 10]: 22.6 days; #Cured/Total [4, 11]: 0/3; MSD [4, 11]: 29.6 days; MSD ([5]; KETRI 2002, 1 mg/kg/day i.p. for 3 days): >30 days; MSD ([5]; KETRI 2002, 5 mg/kg/day i.p. for 3 days): >30 days; MSD ([5]; KETRI 2002, 10 mg/kg/day i.p. for 3 days): >30 days; MSD ([5]; KETRI 2002, 25 mg/kg/day i.p. for 3 days): >30 days |
| N=C(N)c1ccc(OCc2ccc(COc3ccc(C(=N)N)cc3)cc2)cc1 [compound 0508] | 0.295 nM | 18.0 °C | 12.5 °C | 0.665 nM | # Cured/#Treated (%) [3, 12]: 0/3^a; MSD [3, 13]: 5 to 17.3 days |
| N=C(N)c1ccc(OCc2ccccc2COc2ccc(C(=N)N)cc2)cc1 [compound 0513] | 1.25 nM | −0.1 °C | −0.2 °C | 2.55 nM | # Cured/#Treated (%) [3, 12]: 0/3^a; MSD [3, 13]: 5 days |
| Cl.Cl.N=C(N)c1ccc(N2CCCN(c3ccc(C(=N)N)cc3)CC2)cc1 [7AM] | 2.15 nM | 23.1 °C | 15.0 °C | 2.7 nM | – |
